Results taken from US10653796B2, “Liposomes containing cell penetrating peptides and tetraetherlipids for the oral delivery of macromolecules” (Universität Heidelberg, priority 2015, dated 2020).

Experiments:
[1] = Radioactivity at determined time points after oral application of radiolabeled substances; assay type: in vivo; details: radiolabeled substance
[2] = Bioavailability (absolute) of oral liposomal Vancomycin versus i.v.; assay type: in vivo; details: male, Wistar, rat, whole blood; oral liposomal formulation containing 1 mol-% of the cyclic CPP-liposomes, rats; read-out: bioavailability (absolute) in comparison with the i.v. application
Procedure: The animal study was performed according to local authorities using male Wistar rats with a body weight of about 200-250 g. For the determination of the bioavailability (absolute) the glycopeptide antibiotic Vancomycin was radiolabeled with ^131I and incorporated into the liposomal formulation containing 1 mol-% of the cyclic CPP-phospholipid-conjugate and compared with Vancomycin i.v. as described previously. At several time points, the blood levels of Vancomycin were measured by direct counting of the radiolabeled sample. Briefly, groups (n≥3) of male Wistar rats were formed. Prior to 12 h of the experiment, the rats were kept without food, but with free access to water. Oral application of the liposomes took place by gavage. The blood was removed, weighed and the radioactivity was measured using a Berthold LB 951 G counter in comparison with standards. The blood-associated activity was related to the total injected dose (ID) and expressed as a percentage of the total injected dose per gram of tissue (% ID/g).

[3] = Oral availability of radiolabeled Adalimumab; assay type: in vivo, male Wistar rats; details: liposomes containing 1 mol-% cyclic CPP-conjugate vs radiolabeled free antibody, 6 h, rats
Procedure: The animal study was performed according to local authorities using male Wistar rats with a body weight of about 200-250 g. For the determination of the bioavailability (absolute), the antibody Adalimumab (Humira®) was radiolabeled with ^131I and incorporated into the liposomal formulation containing 1 mol-% of the cyclic CPP-phospholipid-conjugate and compared with the free antibody as described previously. After 6 h, the blood levels were measured by direct counting of the radiolabeled sample. Prior to 12 h of the experiment, the rats were kept without food, but with free access to water. Oral application of the liposomes and the radiolabeled free antibody took place by gavage. The blood was removed, weighed and the radioactivity was measured using a Berthold LB 951 G counter in comparison with standards. The blood-associated activity was related to the total injected dose (ID) and expressed as a percentage of the total injected dose per gram of tissue (% ID/g) (FIG. 16).

Row | Compound | mucosal uptake by the liposomal formulations [1] | bioavailability [2] [%] | oral availability [3]
1 | CCCCCCCCCCCCCCCC(=O)N[C@@H](CCC(=O)NCCCC[C@H](NC(=O)[C@H](C)NC(=O)[C@H](C)NC(=O)[C@H](CCC(N)=O)NC(=O)CNC(=O)[C@H](CCC(=O)O)NC(=O)[C@H](CC(C)C)NC(=O)[C@H](Cc1ccc(O)cc1)NC(=O)[C@H](CO)NC(=O)[C@H](CO)NC(=O)[C@@H](NC(=O)[C@H](CC(=O)O)NC(=O)[C@H](CO)NC(=O)[C@@H](NC(=O)[C@H](Cc1ccccc1)NC(=O)[C@@H](NC(=O)CNC(=O)[C@H](CCC(=O)O)NC(=O)[C@H](C)NC(=O)[C@@H](N)Cc1cnc[nH]1)[C@@H](C)O)[C@@H](C)O)C(C)C)C(=O)N[C@@H](CCC(=O)O)C(=O)N[C@@H](Cc1ccccc1)C(=O)N[C@H](C(=O)N[C@@H](C)C(=O)N[C@@H](Cc1c[nH]c2ccccc12)C(=O)N[C@@H](CC(C)C)C(=O)N[C@H](C(=O)N[C@@H](CCCNC(=N)N)C(=O)NCC(=O)N[C@@H](CCCNC(=N)N)C(=O)NCC(=O)O)C(C)C)[C@@H](C)CC)C(=O)O [Liraglutide] | strongly enhanced mucosal uptake | – | –
2 | CN[C@H](CC(C)C)C(=O)N[C@H]1C(=O)N[C@@H](CC(N)=O)C(=O)N[C@H]2C(=O)N[C@H]3C(=O)N[C@H](C(=O)N[C@H](C(=O)O)c4cc(O)cc(O)c4-c4cc3ccc4O)[C@H](O)c3ccc(c(Cl)c3)Oc3cc2cc(c3O[C@@H]2O[C@H](CO)[C@@H](O)[C@H](O)[C@H]2O[C@H]2C[C@](C)(N)[C@H](O)[C@H](C)O2)Oc2ccc(cc2Cl)[C@H]1O [Vancomycin] | – | ≤ 50 | –
3 | Adalimumab | strongly enhanced mucosal uptake | – | strong increase
